Measurements from publication PMC11741003 (ACS Chemical Neuroscience, 2024).
Residues, ends and D or L forms follow the SMILES beside them.

Columns and labels:
[1] = test system: rat brain microvascular endothelial cells (RBMECs); assay: Transendothelial electrical resistance (TEER) in the BBB in vitro model; assay type: cell-based; conditions: RBMEC monolayers
[2] = target: T1, Aβ(1–40) (Homo sapiens, UniProt P05067); conditions: cited from earlier work
T1 construct: impact the mechanism of Cu^2+-induced aggregation of Aβ(1–40)
Excerpt: Scheme 1 TP Holds Therapeutic Potential against AD TP is a tetrapeptide with the sequence MDDWAib. The MD sequence binds Cu^2+ with high affinity (A). […] These findings support a therapeu ...

[3] = target: PrP(92–99) (Homo sapiens, UniProt P04156); conditions: pH 7.4
[4] = target: PrP(106–115) (Homo sapiens, UniProt P04156); conditions: pH 7.4
[5] = test system: Aβ(1–16); conditions: 1 equiv of TP; EPR; cited from earlier work
Excerpt: Although Aβ(1–X) species are the most studied, N-truncated Aβ peptides, such as Aβ(4–X) species (Figure 4A), are highly abundant Aβ isoforms detected in both healthy and AD brains.[58]−[60] Although both peptides bind Cu^2+, their coordination properties and reactivities are completely different.

[6] = test system: rat brain microvascular endothelial cells (RBMECs)
[7] = test system: rat brain microvascular endothelial cells (RBMECs); assay: Peptide recovery (HPLC) from apical and basal compartments of the BBB in vitro model; conditions: peptide alone, apical administration; quantified after 8 and 25 h; HPLC-UV
[8] = BBB in vitro model: primary culture of rat brain microvascular endothelial cells (RBMECs) on inserts, astrocyte-conditioned medium in the basal compartment; conditions: Wistar rat, up to 25 h

T1 sequence (P05067 672-711 limits assumed): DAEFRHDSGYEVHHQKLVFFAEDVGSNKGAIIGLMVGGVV

CC(C)C[C@H](NC(=O)[C@@H](N)CCCCN)C(=O)N[C@@H](Cc1ccc(O)cc1)C(=O)O [P10] (H-Lys-Leu-Tyr-OH)
Decrease of TEER with respect to control monolayers ([1]; P10 alone, CellZscope continuous measurement): approximately 30% | Decrease of TEER with respect to control monolayers ([1]; P10 together with TP): approximately 30%

NH2-MDDWAib-Am [TP]
Effect on Cu2+-induced aggregation of Aβ(1–40) [2]: impacts the Cu^2+-induced aggregation of Aβ(1–40) | Effect on TEER ([1]; TP alone): no effect | Fraction of Cu2+-PrP(92–99) complex in EPR deconvolution ([3]; 1 equiv of TP): 40% | Fraction of Cu2+-TP complex in EPR deconvolution ([3]; 1 equiv of TP): 30% | Fraction of ternary TP-Cu2+-PrP(92–99) complex in EPR deconvolution ([3]; 1 equiv of TP): 30% | Fraction of Cu2+-TP in EPR simulation ([3]; 2 equiv of TP): 20% | Fraction of ternary TP-Cu2+-PrP(92–99) complex in EPR simulation ([3]; 2 equiv of TP): 80% | Fraction of Cu2+-PrP(106–115) complex in EPR deconvolution ([4]; 1 equiv of TP): 30% | Fraction of Cu2+-TP complex in EPR deconvolution ([4]; 1 equiv of TP): 50% | Fraction of ternary TP-Cu2+-PrP(106–115) complex in EPR deconvolution ([4]; 1 equiv of TP): 20% | Fraction of Cu2+-TP in EPR simulation ([4]; 2 equiv of TP): 40% | Fraction of ternary TP-Cu2+-PrP(106–115) complex in EPR simulation ([4]; 2 equiv of TP): 60% | Removal of Cu2+ from Cu2+-Aβ(1–16) [5]: removes the metal ion | Main degradation product in the BBB model [6]: DDWAib | TP degradation in the BBB model [6]: rapidly degraded | TP passage across the BBB model [6]: cannot cross the BBB without P10 | Detection in apical and basal compartments [7]: detected in the apical but not in the basal compartment

NH2-MDDWAib-Am
cleaved bond [8]: Met1-Asp2, major, 3.5 h
